{"source": "patent US12606561B2", "about": "“Substituted pyrazolo[1,5-a][1,3,5]triazines as CDK inhibitors” (QURIENT CO., LTD., priority 2018, dated 2026)", "key": {"A2780": {"system": "A2780", "assay": "A2780 viability assay (CellTiter-Glo, 72 hours)", "format": "cell-based", "conditions": "Homo sapiens; A2780 cells", "procedure,_shortened": "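CellTiter-Glo luminescence read-out after 72 h compound exposure at 37° C, 5% CO2, duplicates. Seeding densities: MV4-11 1×10^4 cells/well, OVCAR-3 5×10^3, A2780 1×10^3. Dose range 0.0015 uM to 10 uM, added 24 h post-plating; DMSO control, final <0.1%.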"}, "H460": {"system": "H460", "assay": "Cellular H460 viability assay (CellTiter-Glo, 72 hours)", "format": "cell-based", "conditions": "Homo sapiens, NCI-H460; H460 cells"}, "[1]": {"target": "T1, 28 CDKs family protein kinases (Homo sapiens, UniProt P49336)", "T1 construct": "purchased ProQinase GmbH; host or cells: Sf9 insect cells or E. coli", "T1 sequence (P49336 whole entry)": "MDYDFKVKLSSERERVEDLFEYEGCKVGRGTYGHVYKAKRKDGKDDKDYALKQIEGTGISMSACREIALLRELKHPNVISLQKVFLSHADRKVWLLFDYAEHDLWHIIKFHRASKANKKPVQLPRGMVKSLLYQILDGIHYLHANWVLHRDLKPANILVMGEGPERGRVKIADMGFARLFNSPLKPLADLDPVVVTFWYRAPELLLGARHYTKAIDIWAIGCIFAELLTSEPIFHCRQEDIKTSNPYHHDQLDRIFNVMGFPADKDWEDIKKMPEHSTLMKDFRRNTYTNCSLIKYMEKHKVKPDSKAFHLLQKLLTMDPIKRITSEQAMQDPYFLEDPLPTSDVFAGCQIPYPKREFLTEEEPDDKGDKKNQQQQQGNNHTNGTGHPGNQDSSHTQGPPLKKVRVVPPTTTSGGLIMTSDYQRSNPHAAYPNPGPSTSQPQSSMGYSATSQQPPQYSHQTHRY", "T1 sequence (P24863 whole entry partner)": "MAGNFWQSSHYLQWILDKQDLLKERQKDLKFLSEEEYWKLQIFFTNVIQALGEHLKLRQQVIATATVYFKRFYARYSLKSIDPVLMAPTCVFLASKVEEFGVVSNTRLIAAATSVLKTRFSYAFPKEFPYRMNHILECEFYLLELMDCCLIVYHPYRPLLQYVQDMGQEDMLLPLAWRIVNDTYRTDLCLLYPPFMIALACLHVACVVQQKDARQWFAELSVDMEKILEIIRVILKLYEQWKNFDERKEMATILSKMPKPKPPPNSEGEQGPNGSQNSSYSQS", "assay": "In vitro IC50 profile for CDKs family kinase (33PanQinase Activity Assay, ProQinase)", "format": "biochemical", "conditions": "CDK8/CycC; read-out: CDK7 selectivity profile in CDKs family, IC50", "method": "(§1) The IC50 profile of compound 11 was determined using 28 CDKs family protein kinases through ProQinase GmbH (Freiburg, Germany). All the protocol and materials had been provided by ProQinase GmbH. Briefly, in the process, 90 μl H2O were added to each well of a compound dilution plate. To minimize potential precipitation, the H2O was added to the plate only a few minutes before the transfer of the compound solutions into the assay plates. The plate was shaken thoroughly, resulting in a “compound dilution plate/10% DMSO”. The compound dilution plate(s) were discarded at the end of the working day. For the assays (see below), 5 μl solution from each well of the compound dilution plate were transferred into the assay plates. The final volume of the assay was 50 μl. All compounds were tested at 10 final assay concentrations in the range from 1×10^−05 M to 3×10^−10 M. The final DMSO concentration in the reaction cocktails was 1% in all cases. All protein kinases provided by ProQinase were expressed in Sf9 insect cells or in E. coli as recombinant GST-fusion proteins or His-tagged proteins, either as full-length or enzymatically active fragments. All kinases were produced from human cDNAs and purified by either GSH affinity chromatography or immobilized metal affinity chromatography. The purity of the protein kinases was examined by SDS-PAGE/Coomassie staining, the identity was checked by mass spectroscopy. Kinases from external vendors, Carna Biosciences Inc.; Invitrogen Corp.; and Millipore Corp., were expressed, purified and quality-controlled by virtue of the vendors readings. A radiometric protein kinase assay (33PanQinase® Activity Assay) was used for measuring the kinase activity of the 28 protein kinases. All kinase assays were performed in 96-well FlashPlates™ from PerkinElmer (Boston, MA, USA) in a 50 μl reaction volume. The reaction cocktails were incubated at 30° C. for 60 minutes. The reaction was stopped with 50 μl of 2% (v/v) H3PO4, plates were aspirated and washed two times with 200 μl 0.9% (w/v) NaCl. Incorporation of ^33Pi was determined with a microplate scintillation counter (Microbeta, Wallac). All assays were performed with a BeckmanCoulter/SAGIAN™ Core System. As part of the data evaluation the low control value from a particular plate was subtracted from the high control value as well as from all 80 “compound values” of the corresponding plate. The residual activity (in %) for each well of a particular plate was calculated by using the following formula: Res. Activity (%)=100×[(cpm of compound−low control)/(high control−low control)]."}, "[2]": {"target": "T2, 28 CDKs family protein kinases (Homo sapiens, UniProt Q9BWU1)", "T2 construct": "purchased ProQinase GmbH; host or cells: Sf9 insect cells or E. coli", "T2 sequence (Q9BWU1 whole entry)": "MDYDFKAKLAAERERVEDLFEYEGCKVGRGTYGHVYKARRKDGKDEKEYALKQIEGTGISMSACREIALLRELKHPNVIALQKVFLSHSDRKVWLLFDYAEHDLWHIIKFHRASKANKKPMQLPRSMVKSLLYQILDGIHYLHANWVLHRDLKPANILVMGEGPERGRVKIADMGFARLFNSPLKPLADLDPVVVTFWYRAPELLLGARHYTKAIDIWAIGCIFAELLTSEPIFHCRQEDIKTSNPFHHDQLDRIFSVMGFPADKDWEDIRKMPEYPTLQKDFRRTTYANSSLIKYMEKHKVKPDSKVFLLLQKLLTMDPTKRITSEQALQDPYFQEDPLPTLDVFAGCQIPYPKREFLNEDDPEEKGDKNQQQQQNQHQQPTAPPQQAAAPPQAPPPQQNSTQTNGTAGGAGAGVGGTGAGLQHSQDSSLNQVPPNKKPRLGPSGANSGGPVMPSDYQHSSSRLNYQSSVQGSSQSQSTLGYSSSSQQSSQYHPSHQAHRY", "T2 sequence (P24863 whole entry partner)": "as the sequence (P24863 whole entry partner) above", "assay": "In vitro IC50 profile for CDKs family kinase (33PanQinase Activity Assay, ProQinase)", "format": "biochemical", "conditions": "CDK19/CycC; read-out: CDK7 selectivity profile in CDKs family, IC50", "method": "as §1"}, "[3]": {"target": "T3, 28 CDKs family protein kinases (Homo sapiens, UniProt P06493)", "T3 construct": "purchased ProQinase GmbH; host or cells: Sf9 insect cells or E. coli", "assay": "In vitro IC50 profile for CDKs family kinase (33PanQinase Activity Assay, ProQinase)", "format": "biochemical", "conditions": "read-out: CDK7 selectivity profile in CDKs family, IC50", "method": "as §1"}, "[4]": {"target": "T4, 28 CDKs family protein kinases (Homo sapiens, UniProt P50613)", "T4 construct": "purchased ProQinase GmbH; host or cells: Sf9 insect cells or E. coli", "T4 sequence (P50613 whole entry)": "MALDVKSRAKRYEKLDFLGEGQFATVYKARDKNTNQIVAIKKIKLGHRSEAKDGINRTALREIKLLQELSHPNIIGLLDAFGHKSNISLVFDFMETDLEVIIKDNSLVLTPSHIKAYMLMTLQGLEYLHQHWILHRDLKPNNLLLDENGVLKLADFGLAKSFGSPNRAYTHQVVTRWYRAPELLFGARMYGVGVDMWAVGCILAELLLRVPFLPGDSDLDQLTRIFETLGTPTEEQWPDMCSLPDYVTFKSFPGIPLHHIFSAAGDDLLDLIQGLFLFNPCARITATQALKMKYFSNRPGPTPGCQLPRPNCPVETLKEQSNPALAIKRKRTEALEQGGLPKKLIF", "T4 sequence (P51946 whole entry partner)": "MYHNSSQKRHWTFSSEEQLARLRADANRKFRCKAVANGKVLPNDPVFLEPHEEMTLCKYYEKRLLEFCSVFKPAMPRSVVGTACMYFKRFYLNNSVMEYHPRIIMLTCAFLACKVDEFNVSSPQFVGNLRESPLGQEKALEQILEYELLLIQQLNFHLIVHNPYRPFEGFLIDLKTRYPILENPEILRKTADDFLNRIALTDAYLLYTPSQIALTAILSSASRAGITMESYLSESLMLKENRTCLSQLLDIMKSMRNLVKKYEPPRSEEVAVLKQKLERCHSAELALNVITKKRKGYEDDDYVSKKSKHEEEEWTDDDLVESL", "T4 sequence (P51948 whole entry partner)": "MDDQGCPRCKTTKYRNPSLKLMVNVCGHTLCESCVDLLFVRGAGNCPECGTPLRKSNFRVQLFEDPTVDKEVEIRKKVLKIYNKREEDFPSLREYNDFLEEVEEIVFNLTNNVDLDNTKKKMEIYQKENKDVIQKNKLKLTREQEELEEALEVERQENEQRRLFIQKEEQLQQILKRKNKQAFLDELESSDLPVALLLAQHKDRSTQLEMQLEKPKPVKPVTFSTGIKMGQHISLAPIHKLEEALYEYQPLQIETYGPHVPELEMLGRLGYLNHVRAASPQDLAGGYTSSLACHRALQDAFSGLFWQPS", "assay": "In vitro IC50 profile for CDKs family kinase (33PanQinase Activity Assay, ProQinase)", "format": "biochemical", "conditions": "CDK7/CycH/MAT1; read-out: CDK7 selectivity profile in CDKs family, IC50", "method": "as §1"}, "CDK7/Cyclin H/MNAT1": {"target": "T5, CDK7/Cyclin H/MNAT1 (Homo sapiens, UniProt P50613)", "T5 construct": "purchased Invitrogen PR6749B", "T5 sequence (P50613 whole entry)": "as the sequence (P50613 whole entry) above", "T5 sequence (P51946 whole entry partner)": "as the sequence (P51946 whole entry partner) above", "T5 sequence (P51948 whole entry partner)": "as the sequence (P51948 whole entry partner) above", "assay": "Enzymatic assay for CDK7 (LANCE Ultra kinase assay, FRET based)", "format": "biochemical", "procedure,_shortened": "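FRET read-out: Eu-labeled anti-phospho-antibody binding a phosphorylated ULight peptide. Purified CDK–cyclin complex, ATP at Km.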"}}, "note": "Like-named read-outs stand apart in the source and are kept apart here."}
{"smiles": "CC(C)c1cnn2c(NCc3ccccc3-c3nccc4cc(NC(=O)/C=C/CN(C)C)ccc34)nc(N3CCC(N)CC3)nc12", "note": "[Compound 11]", "values": [{"measurement": "IC50", "setting": "A2780", "result": "< 1", "unit": "µM"}, {"measurement": "IC50", "setting": "H460", "result": "< 1", "unit": "µM"}, {"measurement": "IC50", "setting": "[1]", "result": "> 10", "unit": "µM"}, {"measurement": "IC50", "setting": "[2]", "result": "> 10", "unit": "µM"}, {"measurement": "IC50", "setting": "[3]; CDK1/CycA2", "result": "> 10", "unit": "µM"}, {"measurement": "IC50", "setting": "[3]; CDK1/CycB1", "result": "> 10", "unit": "µM"}, {"measurement": "IC50", "setting": "[3]; CDK1/CycE1", "result": "> 10", "unit": "µM"}, {"measurement": "IC50", "setting": "[4]", "result": 0.025, "unit": "µM"}, {"measurement": "IC50", "setting": "CDK7/Cyclin H/MNAT1; ATP at Km", "result": "< 0.1", "unit": "µM"}, {"measurement": "CDK1/CDK7: Selectivity of CDK7 inhibition over CDK1 inhibition", "setting": "CDK7/Cyclin H/MNAT1; CDK7 over CDK1", "result": "A (A indicates [fold] > 500)"}, {"measurement": "CDK2/CDK7: Selectivity of CDK7 inhibition over CDK2 inhibition", "setting": "CDK7/Cyclin H/MNAT1; CDK7 over CDK2", "result": "A (A indicates [fold] > 500)"}, {"measurement": "CDK5/CDK7: Selectivity of CDK7 inhibition over CDK5 inhibition", "setting": "CDK7/Cyclin H/MNAT1; CDK7 over CDK5", "result": "A (A indicates [fold] > 500)"}]}
